Source: paper PMC5234683 (Psychopharmacology, 2014)
Where two headings read alike, the source gives them in different places.

Legend:
[1] = target: Sigma-2; conditions: read-out: Ki (nM) Sigma-2; PDSP database; ref PDSP http://pdsp.med.unc.edu/; cited from earlier work
[2] = target: Alpha1A; conditions: read-out: Ki (nM) Alpha1A; PDSP database; ref PDSP http://pdsp.med.unc.edu/; cited from earlier work
[3] = target: Sigma-1; conditions: read-out: Ki (nM) Sigma-1; PDSP database; ref PDSP http://pdsp.med.unc.edu/; cited from earlier work
[4] = target: CB2; conditions: read-out: Ki (nM) CB2; PDSP database; ref PDSP http://pdsp.med.unc.edu/; cited from earlier work
[5] = target: D5; conditions: read-out: Ki (nM) D5; PDSP database; ref PDSP http://pdsp.med.unc.edu/; cited from earlier work
[6] = target: T1, D4R (Homo sapiens, UniProt P21917); experiment: DiscoveRx PathHunter β-arrestin-2 recruitment assay, CHO-K1 cells; format: cell-based; conditions: agonist mode; concentrations up to 100 μM
[7] = target: T2, D1R (Homo sapiens, UniProt P21728); conditions: agonist mode; tested up to 0.1 mM
[8] = target: 5-HT2B; conditions: read-out: Ki (nM) 5-HT2B; PDSP database; ref PDSP http://pdsp.med.unc.edu/; cited from earlier work
[9] = target: M2; conditions: read-out: Ki (nM) M2; PDSP database; ref PDSP http://pdsp.med.unc.edu/; cited from earlier work
[10] = target: D4; conditions: read-out: Ki (nM) D4; PDSP database; ref PDSP http://pdsp.med.unc.edu/; cited from earlier work
[11] = target: H4; conditions: read-out: Ki (nM) H4; PDSP database; ref PDSP http://pdsp.med.unc.edu/; cited from earlier work
[12] = target: 5-HT1E; conditions: read-out: Ki (nM) 5-HT1E; PDSP database; ref PDSP http://pdsp.med.unc.edu/; cited from earlier work
[13] = target: 5-HT2A; conditions: read-out: Ki (nM) 5-HT2A; PDSP database; ref PDSP http://pdsp.med.unc.edu/; cited from earlier work
[14] = target: T2, D1R; experiment: DiscoveRx PathHunter β-arrestin-2 recruitment assay, CHO-K1 cells; format: cell-based; conditions: agonist mode; concentrations up to 100 μM
[15] = target: H2; conditions: read-out: Ki (nM) H2; PDSP database; ref PDSP http://pdsp.med.unc.edu/; cited from earlier work
[16] = target: SERT; conditions: read-out: Ki (nM) SERT; PDSP database; ref PDSP http://pdsp.med.unc.edu/; cited from earlier work
[17] = target: D1; conditions: read-out: Ki (nM) D1; PDSP database; ref PDSP http://pdsp.med.unc.edu/; cited from earlier work
[18] = target: DAT; conditions: read-out: Ki (nM) DAT; PDSP database; ref PDSP http://pdsp.med.unc.edu/; cited from earlier work
[19] = target: T3, D5R (Homo sapiens, UniProt P21918); experiment: DiscoveRx PathHunter β-arrestin-2 recruitment assay, CHO-K1 cells; format: cell-based; conditions: agonist mode; concentrations up to 100 μM
[20] = target: Beta2; conditions: read-out: Ki (nM) Beta2; PDSP database; ref PDSP http://pdsp.med.unc.edu/; cited from earlier work
[21] = target: Alpha1B; conditions: read-out: Ki (nM) Alpha1B; PDSP database; ref PDSP http://pdsp.med.unc.edu/; cited from earlier work
[22] = target: T4, D3R (Homo sapiens, UniProt P35462); experiment: Radioligand competition binding, [3H]-methylspiperone, HEK293 membranes; conditions: competition with 0.5 nM [3H]-methylspiperone; n=3
[23] = target: D1-like receptors in bovine striatal membranes (Bos taurus, UniProt Q95136); experiment: Bovine striatal radioligand binding assay, [3H]-SCH23390; conditions: read-out: Ki, one-site fit, 0.5 nM [3H]-SCH23390
[24] = target: KOR; conditions: read-out: Ki (nM) KOR; PDSP database; ref PDSP http://pdsp.med.unc.edu/; cited from earlier work
[25] = target: 5-HT2C; conditions: read-out: Ki (nM) 5-HT2C; PDSP database; ref PDSP http://pdsp.med.unc.edu/; cited from earlier work
[26] = ref Sun et al. (2009); cited from earlier work
[27] = target: T5, D2R (Homo sapiens, UniProt P14416); experiment: Radioligand competition binding, [3H]-methylspiperone, HEK293 membranes; conditions: competition with 0.5 nM [3H]-methylspiperone; n=3
[28] = target: D3; conditions: read-out: Ki (nM) D3; PDSP database; ref PDSP http://pdsp.med.unc.edu/; cited from earlier work
[29] = target: T1, D4R; experiment: Radioligand competition binding, [3H]-methylspiperone, CHO membranes; conditions: competition with 0.5 nM [3H]-methylspiperone; n=3
[30] = target: T4, D3R; experiment: DiscoveRx PathHunter β-arrestin-2 recruitment assay, CHO-K1 cells; format: cell-based; conditions: agonist mode; concentrations up to 100 μM
[31] = target: DOR; conditions: read-out: Ki (nM) DOR; PDSP database; ref PDSP http://pdsp.med.unc.edu/; cited from earlier work
[32] = test system: 5-HT1A receptor; conditions: ref Gao et al. 2011; Guo et al. 2009; cited from earlier work
[33] = target: H3; conditions: read-out: Ki (nM) H3; PDSP database; ref PDSP http://pdsp.med.unc.edu/; cited from earlier work
[34] = target: Beta1; conditions: read-out: Ki (nM) Beta1; PDSP database; ref PDSP http://pdsp.med.unc.edu/; cited from earlier work
[35] = target: 5-HT5; conditions: read-out: Ki (nM) 5-HT5; PDSP database; ref PDSP http://pdsp.med.unc.edu/; cited from earlier work
[36] = target: 5-HT3; conditions: read-out: Ki (nM) 5-HT3; PDSP database; ref PDSP http://pdsp.med.unc.edu/; cited from earlier work
[37] = target: T2, D1R; experiment: Radioligand competition binding, [3H]-SCH23390, HEK293 membranes; conditions: competition with 0.5 nM [3H]-SCH23390; single site; n=3
[38] = target: T2, D1R; experiment: HTRF cAMP assay; format: cell-based; conditions: agonist mode; Supplemental Fig. 1
[39] = target: T5, D2R; experiment: DiscoveRx PathHunter β-arrestin-2 recruitment assay, CHO-K1 cells; format: cell-based; conditions: agonist mode; concentrations up to 100 μM
[40] = target: H1; conditions: read-out: Ki (nM) H1; PDSP database; ref PDSP http://pdsp.med.unc.edu/; cited from earlier work
[41] = target: 5-HT1A; conditions: read-out: Ki (nM) 5-HT1A; PDSP database; ref PDSP http://pdsp.med.unc.edu/; cited from earlier work
[42] = target: MOR; conditions: read-out: Ki (nM) MOR; PDSP database; ref PDSP http://pdsp.med.unc.edu/; cited from earlier work
[43] = target: 5-HT1B; conditions: read-out: Ki (nM) 5-HT1B; PDSP database; ref PDSP http://pdsp.med.unc.edu/; cited from earlier work
[44] = target: M5; conditions: read-out: Ki (nM) M5; PDSP database; ref PDSP http://pdsp.med.unc.edu/; cited from earlier work
[45] = target: Alpha2B; conditions: read-out: Ki (nM) Alpha2B; PDSP database; ref PDSP http://pdsp.med.unc.edu/; cited from earlier work
[46] = target: Alpha2C; conditions: read-out: Ki (nM) Alpha2C; PDSP database; ref PDSP http://pdsp.med.unc.edu/; cited from earlier work
[47] = target: 5-HT7; conditions: read-out: Ki (nM) 5-HT7; PDSP database; ref PDSP http://pdsp.med.unc.edu/; cited from earlier work
[48] = target: GABA-A; conditions: read-out: Ki (nM) GABA-A; PDSP database; ref PDSP http://pdsp.med.unc.edu/; cited from earlier work
[49] = target: Alpha2A; conditions: read-out: Ki (nM) Alpha2A; PDSP database; ref PDSP http://pdsp.med.unc.edu/; cited from earlier work
[50] = target: D1R–D2R heteromer (Homo sapiens, UniProt P14416+P21728); experiment: D1R–D2R-mediated calcium mobilization assay, co-transfected HEK293T cells; format: cell-based
[51] = target: CB1; conditions: read-out: Ki (nM) CB1; PDSP database; ref PDSP http://pdsp.med.unc.edu/; cited from earlier work
[52] = target: 5-HT1D; conditions: read-out: Ki (nM) 5-HT1D; PDSP database; ref PDSP http://pdsp.med.unc.edu/; cited from earlier work
[53] = target: NET; conditions: read-out: Ki (nM) NET; PDSP database; ref PDSP http://pdsp.med.unc.edu/; cited from earlier work
[54] = target: T5, D2R; format: cell-based; conditions: agonist mode; 100 μM forskolin
[55] = target: 5-HT6; conditions: read-out: Ki (nM) 5-HT6; PDSP database; ref PDSP http://pdsp.med.unc.edu/; cited from earlier work
[56] = target: T3, D5R; experiment: DiscoveRx HitHunter cAMP accumulation assay, HEK293 cells; format: cell-based; conditions: agonist mode
[57] = target: D2; conditions: read-out: Ki (nM) D2; PDSP database; ref PDSP http://pdsp.med.unc.edu/; cited from earlier work

COc1cc2c(cc1O)[C@@H]1Cc3ccc(O)c(OC)c3CN1CC2 [(−)-stepholidine, (−)-Stepholidine]
Ki [1]: 53.4 nM | Ki [2]: > 10000 nM | Ki [3]: 1600 nM | Ki [4]: > 10000 nM | Ki [5]: 4.4 nM | agonist activity, β-arrestin-2 recruitment [6]: failed to produce any measurable recruitment of β-arrestin-2 | agonist activity, cAMP accumulation [7]: has no effect on cAMP accumulation | Ki [8]: 226 nM | Ki [9]: > 10000 nM | Ki [10]: 3750 nM | Ki [11]: > 10000 nM | Ki [12]: > 10000 nM | Ki [13]: > 10000 nM | agonist activity, β-arrestin-2 recruitment [14]: failed to produce any measurable recruitment of β-arrestin-2 | Ki [15]: > 10000 nM | Ki [16]: > 10000 nM | Ki [17]: 5.9 nM | Ki [18]: > 10000 nM | agonist activity, β-arrestin-2 recruitment [19]: failed to produce any measurable recruitment of β-arrestin-2 | Ki [20]: > 10000 nM | Ki [21]: > 10000 nM | Ki [22]: 0.0234 ± 0.0087 µM | Ki ([23]; control, absence of GTPγS): 0.016 ± 0.0024 µM | Ki ([23]; presence of 1 mM GTPγS): 0.0192 ± 0.0044 µM | Ki [24]: > 10000 nM | Ki [25]: > 10000 nM | metabolism after administration [26]: rapidly metabolized within minutes of administration | Ki [27]: 0.0116 ± 0.0042 µM | Ki [28]: 30.1 nM | Ki [29]: 1.45 µM | agonist activity, β-arrestin-2 recruitment [30]: failed to produce any measurable recruitment of β-arrestin-2 | Ki [31]: > 10000 nM | functional profile at the 5-HT1A receptor [32]: partial agonist | Ki [33]: > 10000 nM | Ki [34]: > 10000 nM | Ki [35]: > 10000 nM | Ki [36]: > 10000 nM | Ki [37]: 0.0051 ± 0.0023 µM | agonist activity, cAMP accumulation (HTRF) [38]: did not stimulate D1R-mediated cAMP accumulation | agonist activity, β-arrestin-2 recruitment [39]: failed to produce any measurable recruitment of β-arrestin-2 | Ki [40]: > 10000 nM | Ki [41]: 143 nM | Ki [42]: > 10000 nM | Ki [43]: 6980 nM | Ki [44]: > 10000 nM | Ki [45]: 6880 nM | Ki [46]: 214 nM | Ki [47]: > 10000 nM | Ki [48]: > 10000 nM | Ki [49]: > 10000 nM | agonist activity, Ca2+ mobilization ([50]; agonist mode, concentrations up to 50 μM): no Ca^2+ mobilization was detected | IC50 ([50]; read-out: IC50, inhibition of dopamine-stimulated calcium mobilization, EC80 (1 μM) dopamine, n=3): 0.0193 ± 0.0037 µM | Ki [51]: > 10000 nM | Ki [52]: > 10000 nM | Ki [53]: > 10000 nM | agonist activity, inhibition of forskolin-stimulated cAMP accumulation [54]: has no effect on inhibiting cAMP accumulation | Ki [55]: > 10000 nM | agonist activity, cAMP accumulation [56]: failed to produce any measurable cAMP accumulation | Ki [57]: 974 nM
